Data from article PMC8032764 (Scientific Reports, 2021).
Read-outs that look alike come from different tables or passages of the source.

Experiments:
[1] = target: GABAA α1β3γ2; conditions: Table S4a, cited from earlier work
[2] = target: GABAA α2β3γ2; conditions: Table S4a, cited from earlier work
[3] = target: GABAA α5β3γ2; conditions: Table S4a, read-out: Ki α5β3γ2, cited from earlier work
[4] = tested on: healthy elderly humans; conditions: cited from earlier work
[5] = tested on: non-impaired rodents; experiment: Cognitive performance in non-impaired rodents; assay type: in vivo; conditions: data not shown
[6] = target: GABAA α3β3γ2; conditions: Table S4a, cited from earlier work
[7] = tested on: binding sites of [3H]-Ro 15-4513 in the hippocampus; conditions: similar experiments; cited from earlier work
[8] = tested on: CYP1A2; conditions: rats, reduced plasma exposure on chronic dosing; cited from earlier work
[9] = target: T1, human α6β3γ2 (Homo sapiens, UniProt P18507+Q16445); conditions: previously determined; read-out: Kd of the radiolabel; cited from earlier work
T1 construct: expressed in transfected cells; host or cells: HEK293-EBNA, transient

[10] = tested on: healthy volunteers; experiment: Resting state EEG in healthy volunteers; assay type: in vivo, human; conditions: midazolam single dose, 1 h post dose
Protocol: Full details of the protocol can be found in the Supplementary Information. The study was registered on October 2, 2014 with clinicaltrials.gov identifier NCT02254759. The DDI study was approved by the National Research Ethics Service (NRES) Committee South Central—Berkshire B. EEG was included in the study as one of the pharmacodynamic outcome measures.
Resting state EEG (4 min eyes open, 4 min eyes closed) was recorded at 4 days 1 h and 4 h after dosing at morning (similar time at baseline day). […] The EEG recording from day 16 is not reported here. The EEG technician kept the subject alert (vigilance controlled resting state condition). As soon as drowsiness patterns appeared (slow rolling eye movements, attenuated alpha rhythm replaced by low amplitude), the subject was aroused by auditory stimuli (tapping or clicking).
EEG was recorded from 19 Ag/AgCl electrodes arranged according to the 10/20 system and mounted in an elastic cap. EOG was recorded simultaneously from five electrodes. […]
Power spectral estimates were derived for logarithmically scaled frequencies with a logarithmic frequency smoothing using Morlet Wavelets with a spectral smoothing of 1/2 octave (f/σf = 5.83). […] For analyses of “relative power” the power was normalized to 1 across the frequency range analyzed. […]

[11] = target: human GABAA α5β3γ2 (Homo sapiens, UniProt P18507+P31644); experiment: Two-electrode voltage clamp in Xenopus oocytes, current induced by EC10 of GABA; assay type: cell-based; parameters: expressed in transfected cells; host or cells: Xenopus laevis oocytes, cRNA injection; conditions: 1000 nM, n = 12, not shown
Protocol: Freshly prepared oocytes of maturation stage VI were bought from Ecocyte Bioscience (Castrop-Rauxel, Germany) and, after overnight delivery, plated into 96-well plates (Greiner no. 651101) for microinjection on a ROBOOCYTE R16 system (Multichannel Systems MCS GmbH, Reutlingen, Germany). Each oocyte was injected with roughly 50 nL of RNA solution. The solution for expressing receptors composed of the human α1, β2 and γ2 subunits contained 3 pg/nL of α1 and β2 RNA and 15 pg/nL of γ2 RNA. The solution for expressing human α2β3γ2 receptors contained 2.5 pg/nL of α2 and β3 RNA, 5 pg/nL of γ2 RNA and 10 pg/nL of GABARAP RNA. The solution for expressing human α3β3γ2 receptors contained 1.3 pg/nL of α3 and β3 RNA and 6.5 pg/nL of γ2 RNA. The solution for expressing human α5β3γ2 receptors contained 1.3 pg/nL of α5 and β3 RNA and 13 pg/nL of γ2 RNA. […] After the microinjection the oocytes were kept at 20 °C temperature until the electrophysiological experiment. Experiments were done 3 to 5 days later on the ROBOOCYTE instrument which employs the two-microelectrode voltage-clamp technique for membrane voltage control and current measurement. […] During current recording and compound testing the cell membrane was constantly clamped to − 80 mV. Current signals were recorded and stored on a PC-type computer using the ROBOOCYTE software.
During the microinjection and up to the electrophysiological experiment the oocytes were kept in a solution containing 88 mM NaCl, 1 mM KCl, 2.5 mM NaHCO3, 10 mM HEPES (AppliChem GmbH, Darmstadt, Germany), 0.82 MgSO4, 0.33 mM Ca(NO3)2, 0.33 mM CaCl2, 100 U/mL penicillin (GIBCO, ThermoFisher Scientific) and 100 µg/mL streptomycine (GIBCO, ThermoFisher Scientific). The pH was adjusted to 7.5. During the experiment the voltage-clamped oocyte was constantly superfused by a solution containing 90 mM NaCl, 1 mM KCl, 5 mM HEPES (AppliChem), 1 mM MgCl2 and 1 mM CaCl2 (pH 7.4). GABA and test compounds were added to this solution. GABA concentrations were chosen according to previously determined concentration–response relations for the different human GABAA receptor subunit combinations. Concentrations evoking approximately 10% of a maximal response were selected, i.e., 8 µM for α1β2γ2, 6 µM for α2β3γ2, 10 µM for α3β3γ2 and 5 µM for α5β3γ2. Solutions containing GABA or test compounds were freshly prepared at least every second day. […] Compounds were further diluted in DMSO and finally in extracellular saline to reach a DMSO concentration of 0.1%. The same amount of DMSO was added to the control solutions without test compounds.
During the experiment the solutions were fed into the well containing the voltage-clamped oocyte via Teflon tubings connected by electromagnetic valves which allowed rapid switching between different solutions (controlled by the ROBOCYTE software). Approximately 1–2 min after impaling an oocyte and switching to voltage-clamp mode GABA was applied for 90 s to record a control response. Thereafter the oocyte was washed with saline for 160 s followed by another 90 s GABA application. Then 30 s after the onset of the second GABA application the system switched to a solution containing GABA plus the test compound. Each oocyte was used for testing one concentration of a single test compound (for α5β3γ2: 1 nM: n = 8, 10 nM: n = 8, 100 nM: n = 7, 1000 nM: n = 7).
In this case each GABA application lasted 110 s and the rest period between the two GABA applications was 190 s long.
On each 96-well plate 3–6 oocytes were used for testing a known NAM at the BZD binding site, β-CCM (FG7106), as a positive control. […] Maximally effective concentrations of β-CCM were used for each subunit combination, i.e., 100 nM β-CCM for α1β2γ2, 300 nM for α2β3γ2 or α3β3γ2 and 1 µM for α5β3γ2.

[12] = tested on: preclinical species; parameters: method as in PMID 15918586; conditions: cited from earlier work
[13] = tested on: humans; conditions: experimental medicine study; cited from earlier work

Sequence of human GABAA α5β3γ2 (P31644 32-462): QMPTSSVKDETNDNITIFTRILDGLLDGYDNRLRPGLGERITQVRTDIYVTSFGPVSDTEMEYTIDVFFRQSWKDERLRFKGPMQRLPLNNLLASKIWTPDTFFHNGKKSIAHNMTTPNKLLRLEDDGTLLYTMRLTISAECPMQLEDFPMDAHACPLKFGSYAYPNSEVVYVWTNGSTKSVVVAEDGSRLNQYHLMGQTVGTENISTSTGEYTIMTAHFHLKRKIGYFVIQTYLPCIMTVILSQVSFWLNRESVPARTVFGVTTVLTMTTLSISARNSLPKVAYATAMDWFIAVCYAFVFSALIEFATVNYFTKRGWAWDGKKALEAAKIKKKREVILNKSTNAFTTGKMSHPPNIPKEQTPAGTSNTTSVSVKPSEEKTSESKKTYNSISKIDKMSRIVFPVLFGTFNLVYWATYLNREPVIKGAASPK
Sequence of human GABAA α5β3γ2 (P28472 26-473 partner): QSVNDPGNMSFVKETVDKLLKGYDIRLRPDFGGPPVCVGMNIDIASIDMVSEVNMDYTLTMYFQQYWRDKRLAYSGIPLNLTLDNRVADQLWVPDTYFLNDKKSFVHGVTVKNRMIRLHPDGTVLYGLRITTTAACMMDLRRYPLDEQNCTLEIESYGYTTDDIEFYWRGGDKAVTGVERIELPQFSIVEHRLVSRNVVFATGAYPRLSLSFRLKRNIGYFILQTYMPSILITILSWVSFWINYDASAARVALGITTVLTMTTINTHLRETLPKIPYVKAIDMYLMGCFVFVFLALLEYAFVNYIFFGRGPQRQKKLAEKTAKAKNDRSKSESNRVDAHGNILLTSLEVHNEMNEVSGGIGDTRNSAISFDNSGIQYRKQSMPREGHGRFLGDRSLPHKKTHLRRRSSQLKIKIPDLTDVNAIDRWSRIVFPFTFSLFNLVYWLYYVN
Sequence of human GABAA α5β3γ2 (P18507 40-475): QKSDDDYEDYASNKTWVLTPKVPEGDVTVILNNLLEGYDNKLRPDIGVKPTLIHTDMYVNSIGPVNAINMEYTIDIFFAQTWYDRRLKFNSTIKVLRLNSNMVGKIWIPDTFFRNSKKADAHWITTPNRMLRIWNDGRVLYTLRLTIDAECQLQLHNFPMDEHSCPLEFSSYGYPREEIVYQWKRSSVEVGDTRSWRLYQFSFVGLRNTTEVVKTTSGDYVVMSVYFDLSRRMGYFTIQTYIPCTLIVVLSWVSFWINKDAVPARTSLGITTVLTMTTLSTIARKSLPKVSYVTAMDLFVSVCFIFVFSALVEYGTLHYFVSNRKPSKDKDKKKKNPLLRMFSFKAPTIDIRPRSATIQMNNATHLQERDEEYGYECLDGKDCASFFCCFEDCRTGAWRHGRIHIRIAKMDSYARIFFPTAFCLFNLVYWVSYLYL
T1 sequence (Q16445 20-453): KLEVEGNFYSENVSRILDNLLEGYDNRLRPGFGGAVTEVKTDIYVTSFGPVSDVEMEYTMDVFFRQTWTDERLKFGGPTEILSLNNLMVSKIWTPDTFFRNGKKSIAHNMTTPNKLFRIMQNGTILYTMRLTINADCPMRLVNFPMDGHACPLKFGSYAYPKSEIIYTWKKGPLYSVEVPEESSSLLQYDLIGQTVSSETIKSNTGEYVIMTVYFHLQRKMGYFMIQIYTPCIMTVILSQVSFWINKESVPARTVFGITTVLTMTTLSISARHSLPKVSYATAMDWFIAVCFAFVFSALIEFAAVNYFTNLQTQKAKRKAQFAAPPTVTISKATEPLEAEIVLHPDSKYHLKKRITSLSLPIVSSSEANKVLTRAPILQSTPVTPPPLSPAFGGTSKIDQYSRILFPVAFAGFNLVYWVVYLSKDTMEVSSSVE
T1 sequence (P28472 26-473 partner): as the sequence (P28472 26-473 partner) above
T1 sequence (P18507 40-475): as the sequence (P18507 40-475) above

Cc1cc(-c2nncc3c(C(C)(C)C)c(OCc4ncnn4C)nn23)no1 [MRK-016, 3-tert-butyl-7-(5-methylisoxazol-3-yl)-2-(1-methyl-1H-1,2,4-triazol-5-ylmethoxy)-pyrazolo[1,5-d]-[1,2,4]triazine]
Ki ([1]; ref Atack et al. 2009): 0.8 nM
Ki ([2]; ref Atack et al. 2009): 0.9 nM
Ki ([3]; ref Atack et al. 2009): 1.4 nM
reason why development was stopped [4]: poor tolerability in healthy elderly humans

FC(F)c1ncn2c1Cn1ncnc1-c1cc(Br)ccc1-2 [RO4938581]
enhancement of cognitive performance [5]: have not shown enhancement of cognitive performance
Ki ([1]; ref Ballard et al., 2008): 174 nM
Ki ([2]; ref Ballard et al., 2008): 185 nM
Ki ([6]; ref Ballard et al., 2008): 80 nM
Ki ([3]; ref Ballard et al., 2008): 4.6 nM
binding sites of [3H]-Ro 15-4513 in the hippocampus occupied by the compound [7]: up to 90%
CYP1A2 autoinduction [8]: strong CYP1A2 autoinduction properties

[3H]C([3H])([3H])N1Cc2c(C(=O)OCC)ncn2-c2ccc(N=[N+]=[N-])cc2C1=O [Ro 15-4513, ethyl 8-azido-6-oxo-5-(tritritiomethyl)-4H-imidazo[1,5-a][1,4]benzodiazepine-3-carboxylate]
Kd [9]: 1.83 nM

Cc1ncc2n1-c1ccc(Cl)cc1C(c1ccccc1F)=NC2 [midazolam, reference compound]
change of relative EEG power in the beta band [10]: 32.2 ± 7.04%
increase of the GABA-induced current [11]: 145 ± 9%

Cc1cc(-c2nnc3c4ccccc4c(OCc4cn(C)nn4)nn23)no1 [α5IA]
Ki ([1]; ref Dawson et al., 2006): 0.9 nM
Ki ([2]; ref Dawson et al., 2006): 0.6 nM
Ki ([6]; ref Dawson et al., 2006): 0.6 nM
Ki ([3]; ref Dawson et al., 2006): 0.7 nM
reason why development was stopped [12]: renal toxicity in preclinical species
alcohol-induced impairment in word list recall [13]: reversed an alcohol-induced impairment in word list recall
